Measurements: the supplement of paper PMC10307832

Experiments:
Experiment in all cases: relative viability (nuclei count vs DMSO), 5 days (fraction); higher = more cells survive
Darinaparsin + Alpelisib = compound: C[As](C)SC[C@H](NC(=O)CC[C@H](N)C(=O)O)C(=O)NCC(=O)O [Darinaparsin] + Cc1nc(NC(=O)N2CCC[C@H]2C(N)=O)sc1-c1ccnc(C(C)(C)C(F)(F)F)c1 [Alpelisib] (partner 2 µM)
Procedure, shortened: (§1)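 Lung cancer cell lines were pin-tool dosed in 1536-well plates on the day after seeding, with either a lone drug or a fixed anchor-drug dose plus five library-drug doses (not always all listed) in √10 steps. Nuclei were counted on 4× images after 5 days. Relative viability is the ratio of treated-well to vehicle-well nuclei counts, with each value a median of duplicate plates.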

AZ628 + Pictilisib = compound: CC1=C(C=C(C=C1)NC(=O)C2=CC(=CC=C2)C(C)(C)C#N)NC3=CC4=C(C=C3)N=CN(C4=O)C [AZ628] + CS(=O)(=O)N1CCN(Cc2cc3nc(-c4cccc5[nH]ncc45)nc(N4CCOCC4)c3s2)CC1 [Pictilisib] (partner 1 µM)
Procedure, shortened: as §1

QS11 + Pemetrexed = compound: C1CC2=C(C1)C=C(C=C2)OC3=NC(=C4C(=N3)N(C=N4)CC5=CC=C(C=C5)C6=CC=CC=C6)N[C@@H](CC7=CC=CC=C7)CO [QS11] + Nc1nc2[nH]cc(CCc3ccc(C(=O)N[C@@H](CCC(=O)O)C(=O)O)cc3)c2c(=O)[nH]1 [Pemetrexed] (partner 0.2 µM)
Procedure, shortened: as §1

AZ628 + Foretinib = compound: CC1=C(C=C(C=C1)NC(=O)C2=CC(=CC=C2)C(C)(C)C#N)NC3=CC4=C(C=C3)N=CN(C4=O)C [AZ628] + COc1cc2c(Oc3ccc(NC(=O)C4(C(=O)Nc5ccc(F)cc5)CC4)cc3F)ccnc2cc1OCCCN1CCOCC1 [Foretinib] (partner 0.25 µM)
Procedure, shortened: as §1

Cell Line | relative viability (Darinaparsin + Alpelisib; first compound 0.08 µM) | relative viability (Darinaparsin + Alpelisib; first compound 0.8 µM) | relative viability (Darinaparsin + Alpelisib; first compound 2.53 µM) | relative viability (Darinaparsin + Alpelisib; first compound 8 µM) | relative viability (AZ628 + Pictilisib; first compound 0.08 µM) | relative viability (AZ628 + Pictilisib; first compound 0.253 µM) | relative viability (AZ628 + Pictilisib; first compound 0.8 µM) | relative viability (AZ628 + Pictilisib; first compound 2.53 µM) | relative viability (AZ628 + Pictilisib; first compound 8 µM) | relative viability (QS11 + Pemetrexed; first compound 0.08 µM) | relative viability (QS11 + Pemetrexed; first compound 0.253 µM) | relative viability (QS11 + Pemetrexed; first compound 0.8 µM) | relative viability (QS11 + Pemetrexed; first compound 2.53 µM) | relative viability (QS11 + Pemetrexed; first compound 8 µM) | relative viability (AZ628 + Foretinib; first compound 0.08 µM) | relative viability (AZ628 + Foretinib; first compound 0.253 µM) | relative viability (AZ628 + Foretinib; first compound 0.8 µM) | relative viability (AZ628 + Foretinib; first compound 2.53 µM) | relative viability (AZ628 + Foretinib; first compound 8 µM)
201T | 1.12 | 1.03 | 0.997 | 0.82 | 0.688 | 0.659 | 0.691 | 0.71 | 0.723 | 0.357 | 0.348 | 0.328 | 0.358 | 0.267 | 1.29 | 1.01 | 1.18 | 1.16 | 1.31
A549 | 0.973 | 0.812 | 0.746 | 1.08 | 0.473 | 0.378 | 0.311 | 0.406 | 0.138 |  |  |  |  |  | 0.931 | 0.824 | 0.816 | 0.956 | 0.34
A-427 | 1.11 | 1.05 | 1.08 | 1.12 | 0.43 | 0.364 | 0.333 | 0.177 | 0.132 | 0.967 | 0.985 |  | 0.989 | 0.979 | 0.996 | 0.872 | 0.542 | 0.643 | 0.34
ABC-1 | 0.966 | 1.16 | 1.07 | 1.28 | 0.764 | 0.828 | 0.677 | 0.643 | 0.486 |  |  |  |  |  | 0.96 | 1.17 | 1.19 | 0.944 | 0.943
BEN | 0.963 | 1.09 | 0.956 | 1.33 | 0.621 | 0.523 | 0.487 | 0.49 | 0.458 | 0.638 | 0.764 | 0.911 | 0.852 | 0.815 | 0.694 | 0.511 | 0.544 | 0.561 | 0.571
CAL-12T | 1.41 | 1.01 | 1.28 | 1.89 | 0.393 |  | 0.416 | 0.298 | 0.505 | 1.26 | 1.37 | 1.05 | 1.24 | 1.04 | 1.16 | 1.05 | 1.13 | 0.994 | 0.559
COR-L23 | 1.02 | 0.707 | 0.585 | 0.893 | 0.767 | 0.73 | 0.651 | 0.653 | 0.346 | 0.196 | 0.179 | 0.206 | 0.198 | 0.199 | 1.02 | 1 | 0.949 | 1.08 | 0.625
COR-L 105 | 1.34 | 1.21 |  | 1.08 | 0.466 | 0.418 | 0.384 | 0.353 | 0.334 | 1.14 | 0.96 | 1.04 | 0.955 | 0.942 | 1.47 | 0.95 | 1.19 | 1.11 | 0.669
Calu-6 | 1.14 | 0.975 | 1.02 | 0.945 | 0.896 | 0.64 | 0.409 | 0.553 | 0.144 |  |  |  |  |  | 0.867 | 0.726 | 0.636 | 0.816 | 0.142
ChaGo-K-1 |  |  |  |  | 0.889 |  | 0.474 | 0.756 | 0.743 |  | 0.269 | 0.256 | 0.263 | 0.255 | 0.962 | 0.837 | 0.924 | 0.916 | 0.751
EBC-1 | 0.802 | 0.773 | 0.728 | 0.958 | 0.341 | 0.299 | 0.271 | 0.233 | 0.201 |  |  |  |  |  | 0.117 | 0.11 | 0.111 | 0.0929 | 0.0846
EKVX | 0.943 | 0.844 | 0.857 | 1.1 | 0.487 | 0.489 | 0.471 | 0.472 | 0.333 | 0.385 | 0.412 | 0.412 | 0.356 | 0.345 | 0.724 | 0.609 | 0.721 | 0.847 | 0.564
EMC-BAC-2 | 0.894 | 0.687 | 0.709 | 0.888 | 0.511 | 0.476 | 0.455 | 0.459 | 0.466 | 0.461 | 0.463 | 0.409 | 0.594 | 0.445 | 0.91 | 0.87 | 0.871 | 0.901 | 0.877
EPLC-272H | 1.03 | 0.931 | 0.851 | 1.15 | 0.273 | 0.232 | 0.236 | 0.266 | 0.231 | 0.306 | 0.366 | 0.344 | 0.313 | 0.315 | 0.671 | 0.625 | 0.654 | 0.581 | 0.309
H3255 | 0.761 | 0.626 | 0.636 | 0.792 | 0.457 | 0.499 | 0.463 | 0.398 | 0.225 | 0.578 | 0.632 | 0.532 | 0.562 | 0.53 | 0.958 | 0.899 | 0.78 | 0.96 | 0.661
